18 compounds from patent publication US9757477B2, “Imaging brown adipose tissue with curcumin derivatives” (The General Hospital Corporation, priority 2013, dated 2017) can be followed below.

The subject of test [1] is interscapular BAT. As to the kind of experiment: Top-down whole-organism NIR fluorescence screening of dyes (ROI1/ROI2 contrast). Format: in vivo, nude mice. Particulars: for Ratio No 1 (ROI1/ROI2 average fluorescence intensity) / Ratio No 2 (ROI1/ROI2 average fluorescence intensity) / Ratio No 3 (ROI1/ROI2 average fluorescence intensity) / Ratio AVERAGE (mean ratio ROI1/ROI2): nude mice, one hour post-injection; for Ratio No 1 (ROI1/ROI2 average fluorescence intensity) / Ratio No 2 (ROI1/ROI2 average fluorescence intensity) / Ratio No 3 (ROI1/ROI2 average fluorescence intensity): 10 μg/mouse i.v.; for Ratio No 1 (ROI1/ROI2 average fluorescence intensity): first excitation/emission filter pair; for Ratio No 2 (ROI1/ROI2 average fluorescence intensity): second excitation/emission filter pair; for Ratio No 3 (ROI1/ROI2 average fluorescence intensity): third excitation/emission filter pair; for Ratio AVERAGE (mean ratio ROI1/ROI2): i.v., mean of three filter pairs, hit threshold >1.10; for visible contrast around the interscapular BAT area: in vivo NIR images. Here is the method: 38 fluorescent dyes from commercial resources and from the inventors' laboratory were screened. Dyes with excitation range of 550-745 nm, emission range of 600-840 nm, and with molecular weight of less than 700 Da (except Cy5.5) (representative dyes are listed in FIG. 1d and the full list is shown in Table 2). Their hydrophobicities were not determined. The library was screened by intravenous tail injection of compounds into nude mice (10μg/mouse). Each dye was imaged with three optimized excitation/emission filter-pairs, and images at one hour after i.v. injection were acquired.
Top-down whole organism screening was performed as follows. Nude mice (nu/nu COX7) were purchased from Massachusetts General Hospital and Balb/c mice were from Jackson Laboratory. All animal experimental procedures were approved by the Institutional Animal Care and Use Committee (IACUC) at Massachusetts General Hospital. Dye stock solutions were prepared in DMSO. The final injection solution (0.1 mg/ml) was freshly prepared in a mixed solution of 20% DMSO, 20% Cremophor EL and 60% saline. Nude mice (n=5) were injected with a 100 μL dye solution via tail vein. For each imaging session, mice were anesthetized with a mixture of oxygen and isoflurane for 5 minutes, and then positioned into the imaging chamber of IVIS® Spectrum in vivo pre-clinical imaging system. Images were acquired at one-hour post-injection using sequence imaging with three excitation/emission filter pairs for each dye.
Hits selection was performed as follows. Hits from cell- or protein-based screening are usually selected by setting certain threshold. In the case of the top-down imaging screening, two methods were used (threshold and visible contrast) to select hits. First, three images obtained with three excitation/emission pairs were selected for each dye. These ex/em pairs were selected from the closest excitation and emission wavelengths of the tested dyes. For instance, 605/660 nm, 605/680 nm, 640/680 nm were selected for image acquisition of Nile blue (625/660 nm). The quantification of contrast for each image was calculated as a ratio of two ROIs (region of interest). ROI1 reflected the average signal from interscapular BAT and ROI2 was the average signal of the area that included BAT and white adipose tissue (WAT) around the interscapular site (FIG. 1b, left). The averaged fluorescent signal of ROI was used instead of the total signal, because the total signal depends on the area of ROI, whereas the averaged signal reflects the density of signal. The ratio of ROI1/ROI2 could reflect the signal/noise ratio of the tested probe, and could also reflect the selectivity of the probe for BAT over WAT. For each dye, three ROI1/ROI2 ratios obtained with the three filter pairs were calculated. The mean of the ratios was used as the threshold. If the mean ratio was >1.10, the dye was selected as a potential positive hit (FIG. 1c). Since the contrast of a dye in the top-down screening is in the visible range, the visible contrast around the interscapular BAT area was also tested for the hits with the mean ratio of >1.10. If both mean ratio and the visible contrast were positive, then the hit was subjected to re-testing procedure to validate its reliability as described below.
Although CRANAD-2 and CRANAD-3 were able to provide certain contrast for BAT in vivo, their excitation and emission wavelengths were still shorter than required for an ideal NIR imaging probe (both excitation and emission >640 nm). […] To seek better probes, a sub-library was synthesized based on the structures of the lead probes CRANAD-2 and -3. CRANAD-6, -19, -22, -24, -26, -32 and -43 were synthesized and tested (images and chemical structures, excitation and emission spectra are shown in FIG. 9 a-e). […] However, the ROI1/ROI2 ratio of CRANAD-22 was not improved (FIG. 9c).

Test [2] relates to interscapular BAT. As to the kind of experiment: Re-testing of hits with stepwise dissection and NIR imaging. The format is in vivo, mice. Particulars: stepwise dissection. Here is the method: Like protein/cell-based screening, hit re-testing experiments were conducted to validate the reliability of this approach. CRANAD-2, -3, LDS 722 and Rhodamine 640 were subjected to re-testing by repeating the above imaging procedure. Images were acquired one hour after probe injection.
Next, stepwise dissection and imaging were performed to track the source of the fluorescence contrast at the interscapular site. Skin and the thin WAT layer that covers BAT were first removed, and then BAT was dissected, and NIR images were captured at each step. […] The signal contribution from BAT (R(BAT)) was roughly estimated using the ratio of fluorescence signals acquired after (F(BAT)) and before (F(intact)) the first step dissection of skin and WAT.

Several values for one entry are separate records, joined by “and”; a condition that tells them apart may be missing. Equal entries are not always repeated.

Turning to Cy5.5, in test [1], the “Ratio No 1 (ROI1/ROI2 average fluorescence intensity)” value is listed as 1.07E+00, the “Ratio No 2 (ROI1/ROI2 average fluorescence intensity)” value worked out at 1.07E+00, the “Ratio No 3 (ROI1/ROI2 average fluorescence intensity)” value is listed as 1.06E+00 and the “Ratio AVERAGE (mean ratio ROI1/ROI2)” value was determined as 1.07E+00.
As to `N=c1cc2oc3cc(N)ccc3nc-2c2ccccc12` [Cresyl Violet], in test [1], the “Ratio No 1 (ROI1/ROI2 average fluorescence intensity)” value stood at 9.56E−01, the “Ratio No 2 (ROI1/ROI2 average fluorescence intensity)” value turned out to be 9.72E−01, the “Ratio No 3 (ROI1/ROI2 average fluorescence intensity)” value was 1.02E+00 and the “Ratio AVERAGE (mean ratio ROI1/ROI2)” value was 9.81E−01.
As to `CC[n+]1c(/C=C/C=C/c2ccc(N(C)C)cc2)ccc2cc(N(C)C)ccc21.[O-][Cl+3]([O-])([O-])[O-]` [LDS751], in test [1], the “Ratio No 1 (ROI1/ROI2 average fluorescence intensity)” value is given as 1.07E+00, the “Ratio No 2 (ROI1/ROI2 average fluorescence intensity)” value is recorded as 1.05E+00, the “Ratio No 3 (ROI1/ROI2 average fluorescence intensity)” value was determined as 1.11E+00 and the “Ratio AVERAGE (mean ratio ROI1/ROI2)” value was 1.08E+00.
`CN(C)c1ccc(/C=C/C=C/C2=[N+](C)c3ccccc3C2(C)C)cc1.[O-][Cl+3]([O-])([O-])[O-]` [LDS730]: in test [1], the “Ratio No 1 (ROI1/ROI2 average fluorescence intensity)” value is on record as 1.03E+00, the “Ratio No 2 (ROI1/ROI2 average fluorescence intensity)” value was 1.08E+00, the “Ratio No 3 (ROI1/ROI2 average fluorescence intensity)” value stood at 1.09E+00 and the “Ratio AVERAGE (mean ratio ROI1/ROI2)” value was determined as 1.07E+00.
The corresponding values for Sulforhodamine are 8.51E−01, 8.86E−01, 9.21E−01 and 8.86E−01.
The corresponding values for `CC[n+]1ccc(/C=C/C=C/c2ccc(N(C)C)cc2)c2ccccc21.[O-][Cl+3]([O-])([O-])[O-]` [LDS798] are 1.00E+00, 1.00E+00, 9.88E−01 and 9.98E−01.
The corresponding values for `CN1C(=CC=CC=CC2=[N+](C)c3ccccc3C2(C)C)C(C)(C)c2ccccc21.[I-]` [HIDC] are 1.01E+00, 1.01E+00, 1.02E+00 and 1.01E+00.
As for `CN1/C(=C/C=C2\CCCC(/C=C/C3=[N+](C)c4ccc5ccccc5c4C3(C)C)=C2Cl)C(C)(C)c2c1ccc1ccccc21.Cc1ccc(S(=O)(=O)[O-])cc1` [IR813], in test [1], the “Ratio No 1 (ROI1/ROI2 average fluorescence intensity)” value is recorded as 1.08E+00, the “Ratio No 2 (ROI1/ROI2 average fluorescence intensity)” value is listed as 9.91E−01, the “Ratio No 3 (ROI1/ROI2 average fluorescence intensity)” value is 1.08E+00 and the “Ratio AVERAGE (mean ratio ROI1/ROI2)” value turned out to be 1.05E+00.
For the compound `CC1(C)C(/C=C/C=C/C=C/C=C2\N(CCCCS(=O)(=O)[O-])c3ccc4ccccc4c3C2(C)C)=[N+](CCCCS(=O)(=O)[O-])c2ccc3ccccc3c21.[Na+]` [IR125], in test [1], the “Ratio No 1 (ROI1/ROI2 average fluorescence intensity)” value came to 8.65E−01, the “Ratio No 2 (ROI1/ROI2 average fluorescence intensity)” value is reported as 9.76E−01, the “Ratio No 3 (ROI1/ROI2 average fluorescence intensity)” value was found to be 8.49E−01 and the “Ratio AVERAGE (mean ratio ROI1/ROI2)” value came to 8.97E−01.
The corresponding values for `CCN1/C(=C/C=C/C=C/c2oc3ccccc3[n+]2CC)Oc2ccccc21.[I-]` [DODC] are 1.08E+00, 1.09E+00, 1.10E+00 and 1.09E+00.
Take `CC[n+]1ccccc1/C=C/C=C/c1ccc(N(C)C)cc1.[O-][Cl+3]([O-])([O-])[O-]` [LDS698]: in test [1], the “Ratio No 1 (ROI1/ROI2 average fluorescence intensity)” value is 1.03E+00, the “Ratio No 2 (ROI1/ROI2 average fluorescence intensity)” value was determined as 1.06E+00, the “Ratio No 3 (ROI1/ROI2 average fluorescence intensity)” value amounted to 1.04E+00 and the “Ratio AVERAGE (mean ratio ROI1/ROI2)” value is listed as 1.04E+00.
`CC[n+]1ccc(C=CC=Cc2ccc(N(C)C)cc2)cc1.[O-][Cl+3]([O-])([O-])[O-]` [LDS722]: in test [1], the “visible contrast around the interscapular BAT area” value is “weak contrast and no clear triangular contours”; the “Ratio No 1 (ROI1/ROI2 average fluorescence intensity)” value came out at 1.15E+00; the “Ratio No 2 (ROI1/ROI2 average fluorescence intensity)” value was found to be 1.14E+00; the “Ratio No 3 (ROI1/ROI2 average fluorescence intensity)” value was 1.08E+00. Besides, in test [1], the “Ratio AVERAGE (mean ratio ROI1/ROI2)” value was 1.13 and 1.13E+00. Also, the “fluorescence signal from BAT (before vs after BAT removal)” value in test [2] is “no significant fluorescent signal was from BAT”.
For the compound `O=C(O)c1ccccc1C1=c2cc3c4c(c2Oc2c1cc1c5c2CCCN5CCC1)CCC[N+]=4CCC3.[Cl-]` [Rhodamine640], in test [1], the “visible contrast around the interscapular BAT area” value was “weak contrast and no clear triangular contours”; the “Ratio No 1 (ROI1/ROI2 average fluorescence intensity)” value was found to be 1.15E+00; the “Ratio No 2 (ROI1/ROI2 average fluorescence intensity)” value is listed as 1.15E+00; the “Ratio No 3 (ROI1/ROI2 average fluorescence intensity)” value turned out to be 1.15E+00. The “Ratio AVERAGE (mean ratio ROI1/ROI2)” value in test [1] was 1.15 and 1.15E+00. In addition, in test [2], the “fluorescence signal from BAT (before vs after BAT removal)” value is given as “no significant signals were from BAT”.
On to `CC1=C(C)C(C)=[N+]2C1=C(C#N)c1c(C)c(C)c(C)n1[B-]2(F)F` [Pyromethene650], for which, in test [1], the “Ratio No 1 (ROI1/ROI2 average fluorescence intensity)” value is recorded as 1.09E+00, the “Ratio No 2 (ROI1/ROI2 average fluorescence intensity)” value worked out at 1.07E+00, the “Ratio No 3 (ROI1/ROI2 average fluorescence intensity)” value was 1.08E+00 and the “Ratio AVERAGE (mean ratio ROI1/ROI2)” value was 1.08E+00.
`CN1C(=CC=CC=CC=CC2=[N+](C)c3ccccc3C2(C)C)C(C)(C)c2ccccc21.[I-]` [HITC]: in test [1], the “Ratio No 1 (ROI1/ROI2 average fluorescence intensity)” value was 1.07E+00, the “Ratio No 2 (ROI1/ROI2 average fluorescence intensity)” value is on record as 1.02E+00, the “Ratio No 3 (ROI1/ROI2 average fluorescence intensity)” value is listed as 1.06E+00 and the “Ratio AVERAGE (mean ratio ROI1/ROI2)” value is 1.05E+00.
Turning to `CCN(CC)c1ccc2c(-c3ccccc3C(C)=O)c3ccc(=[N+](CC)CC)cc-3oc2c1` [RhodamineB], in test [1], the “Ratio No 1 (ROI1/ROI2 average fluorescence intensity)” value came out at 1.01E+00, the “Ratio No 2 (ROI1/ROI2 average fluorescence intensity)” value amounted to 1.01E+00, the “Ratio No 3 (ROI1/ROI2 average fluorescence intensity)” value is reported as 9.54E−01 and the “Ratio AVERAGE (mean ratio ROI1/ROI2)” value was 9.90E−01.
With `CCN1/C(=C/C=C/C=C/C=C/c2oc3ccccc3[n+]2CC)Oc2ccccc21.[I-]` [DOTC], in test [1], the “Ratio No 1 (ROI1/ROI2 average fluorescence intensity)” value came out at 9.48E−01, the “Ratio No 2 (ROI1/ROI2 average fluorescence intensity)” value is on record as 9.44E−01, the “Ratio No 3 (ROI1/ROI2 average fluorescence intensity)” value is 9.52E−01 and the “Ratio AVERAGE (mean ratio ROI1/ROI2)” value is 9.48E−01.
With `CCN=c1cc2oc3c4c5c(cc3nc-2c2ccccc12)CCCN5CCC4` [OX750], in test [1], the “Ratio No 1 (ROI1/ROI2 average fluorescence intensity)” value turned out to be 1.09E+00, the “Ratio No 2 (ROI1/ROI2 average fluorescence intensity)” value is 1.09E+00, the “Ratio No 3 (ROI1/ROI2 average fluorescence intensity)” value is 1.04E+00 and the “Ratio AVERAGE (mean ratio ROI1/ROI2)” value is given as 1.07E+00.
